Counter-ions that a name gives are not always drawn.
Assays:
YAP-TEAD interaction = test: SK-HEP-1 reporter assay (8xTEAD responsive elements driving NanoLuc luciferase); assay type: cell-based
Method in brief: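 Reporter read-out: NanoLuc luminescence from 8×TEAD elements stably integrated in SK-HEP-1 cells, after 24 h compound exposure at 37° C. Ten concentrations tested in duplicate, top 30 μM final, 0.3% DMSO; IC50 from curve.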

NCI-H226 cells = test: Viability assay in NCI-H226 (Yap-dependent) cells, CyQuant; assay type: cell-based, human
Protocol: (§1) Viability Assay in NCI-H226 (Yap-Dependent) and SW620 Yap KO (Yap Independent) Cells
(§2) The ability of YAP-TEAD inhibitors to inhibit tumor cell growth was evaluated using two different cell lines: NCI-H226, which is a YAP dependent cell line, and SW620 cells, where YAP and TAZ were knocked out using CRISPR to generate a YAP independent cell line.
(§3) For the assay, cells were treated in duplicates with the test compounds in a 10-point dose, 1:3 dilution steps, with the top concentration starting at 30 μM (final concentration in assay). After a 96 hour incubation at 37° C., 95% rH, and 5% CO2, a cell-permeant DNA-binding dye that stains only healthy cells (CyQUANT®, Promega) was added to the cells, allowing the quantification of cell viability.
(§4) Cell Media: The NCI-H226 cells were cultured in the following media: RPMI 1640, +10% FBS, +1× GlutaMAX, +10 mM HEPES, +0.5% Pen/Strep. The SW620-KO cells were cultured in the following media: DMEM/F-12, +10% FBS, +1× GlutaMAX, +10 mM HEPES, +0.5% Pen/Strep.
(§5) Reagents: The reagents used are listed below:
(§6) Cell culture: The cells were examined using an inverted microscope to check for health, cell density, etc. To dissociate adherent cells, the monolayer of cells was washed once with pre-warmed PBS. After removing the PBS, 3 ml pre-warmed Accutase was added to a F75 flask, dispersed evenly and the flask was allowed to sit in incubator for ˜4-5 minutes.
(§7) When a single cell suspension was obtained, 7 ml of prewarmed growth media was added and resuspended with the cells. The cell suspension was transferred to a sterile 15 ml conical centrifuge tube, and spun for 5 min at 300×g, RT. The supernatant was discarded and the pellet was resuspended in 10 ml of pre-warmed growth media.
(§8) The total cell count was determined, and 20 μl of the desired cell number was added to each well of a 384 well plate using a Multidrop Combi. The plates were then incubated for 24 hours at 37° C., 95% rH, and 5% CO2.
(§9) Compound treatment: 24 hours after seeding, the cells were treated with compounds.
(§10) A 1:333 dilution of compounds, diluted in DMSO, was made to get a final concentration of 0.3% DMSO per well. To transfer the compounds to the assay plate, […] was shot from Labcyte low dead volume plates to the cell plates containing 20 μl media/well with the ECHO 555 liquid handling system.
(§11) After treatment, the cells were fed with 20 μl fresh pre-warmed assay media using a Multidrop combi.
(§12) The assay plates were then incubated for 96 h at 37° C., 95% rH, and 5% CO2.
(§13) 96 h after treatment 30 μl of CyQuant® reagent was added to the assay plates using a Multidrop combi in the dark. The plates were then incubated for 1 hour at 37° C., 95% rH and 5% CO2. Thereafter, the assay plates were removed from the incubator and allowed to equilibrate to RT for 30 min in the dark without lid. Finally, they were measured using an EnVision microplate reader with a FITC bottom read program.

SW620 Yap KO cells = test: Viability assay in SW620 Yap KO (Yap independent) cells, CyQuant; assay type: cell-based; conditions: Homo sapiens, SW-620, 96 h, n.d. = value not detectable below threshold given in parentheses
Protocol: as §1, §2, §3, §4, §5, §6, §7, §8, §9, §10, §11, §12, §13

[1] = Homo sapiens, SK-HEP1, SK-HEP-1 reporter assay, class symbols
[2] = Homo sapiens, NCI-H226, 96 h, class symbols
[3] = Homo sapiens, SK-HEP1, SK-HEP-1 reporter assay, n.d. = value not detectable below threshold given in parentheses
[4] = Homo sapiens, SK-HEP1, SK-HEP-1 reporter assay, n.d. = value not detectable below threshold given in parentheses, ND = not determinable within the entire range
[5] = Homo sapiens, NCI-H226, 96 h, n.d. = value not detectable below threshold given in parentheses

Row | Compound | IC50 (YAP-TEAD interaction; [1]) | IC50 (NCI-H226 cells; [2]) | also measured
1 | Cn1cc2c3cc(C(=O)N=[S@@](=O)(CCCO)Cc4ccccn4)ccc3n(-c3ccc(C(F)(F)F)cc3)c2n1 (single isomer, unassigned) [Example C210] | – | 100 to 1000 nM | IC50 (YAP-TEAD interaction; [3]): > 95 nM; IC50 (SW620 Yap KO cells): > 3 µM
2 | Cc1ccc(-n2c3ccc(C(=O)N[C@H](C)CO)cc3c3cn(C)nc32)cc1 [Example C131, N-[(2R)-1-hydroxypropan-2-yl]-2-methyl-8-(4-methylphenyl)-2H,8H-pyrazolo[3,4-b]indole-5-carboxamide] | 100 to 10000 nM | 100 to 1000 nM | IC50 (SW620 Yap KO cells; ND = not determinable within the entire range): > 30 µM
3 | Cn1cc2c3cc(NS(=O)(=O)Cc4ccncc4)ccc3n(-c3ccc(C(F)(F)F)cc3)c2n1 [Example C128, N-{2-methyl-8-[4-(trifluoromethyl)phenyl]-2H,8H-pyrazolo[3,4-b]indol-5-yl}-1-(pyridin-4-yl)methanesulfonamide] | – | – | IC50 (YAP-TEAD interaction; [4]): > 10000 nM; IC50 (NCI-H226 cells; [5]): > 3 nM
4 | Cn1cc2c3cc(C(=O)N=[S@](=O)(CCO)Cc4cccnc4)ccc3n(-c3ccc(C(F)(F)F)cc3)c2n1 (single isomer, unassigned) [Example C188] | – | 1 to 100 nM | IC50 (YAP-TEAD interaction; [3]): > 9500 nM
5 | Cc1snc2c1c1cc(C(=O)NCc3ncccn3)ccc1n2-c1ccc(C(F)(F)F)cc1 [Example C63, 3-methyl-N-[(pyrimidin-2-yl)methyl]-8-[4-(trifluoromethyl)phenyl]-8H-[1,2]thiazolo[3,4-b]indole-5-carboxamide] | 1 to 10 nM | 1 to 100 nM | –
6 | Cn1cc2c3cc(C(=O)N4CC[C@H](O)C4)ccc3n(-c3ccc(C(F)(F)F)cn3)c2n1 [Example C151, (3S)-1-{2-methyl-8-[5-(trifluoromethyl)pyridin-2-yl]-2H,8H-pyrazolo[3,4-b]indole-5-carbonyl}pyrrolidin-3-ol] | – | 100 to 1000 nM | IC50 (YAP-TEAD interaction; [4]): > 10000 nM
7 | Cn1cc2c3cc(NS(=O)(=O)Cc4ccccn4)ccc3n(-c3ccc(C(F)(F)F)cc3)c2n1 [Example C130, N-{2-methyl-8-[4-(trifluoromethyl)phenyl]-2H,8H-pyrazolo[3,4-b]indol-5-yl}-1-(pyridin-2-yl)methanesulfonamide] | – | – | IC50 (YAP-TEAD interaction; [4]): > 30000 nM; IC50 (NCI-H226 cells; [5]): > 3 nM
8 | Cn1cc2c3cc(C(=O)O)cnc3n(-c3ccc(C(F)(F)F)cc3)c2n1 [Example 37, 4-methyl-7-[4-(trifluoromethyl)phenyl]-4,5,7,9-tetraazatricyclo[6.4.0.0^2,6]dodeca-1(8),2,5,9,11-pentaene-11-carboxylic acid] | – | – | IC50 (YAP-TEAD interaction; SK-HEP-1 reporter assay, class symbols): 1 to 10 nM; IC50 (NCI-H226 cells; 96 h, class symbols): > 10000 nM
9 | Cn1cc2c3cc(NS(=O)(=O)Cc4cccnc4)ccc3n(-c3ccc(C(F)(F)F)cc3)c2n1 [Example C129, N-{2-methyl-8-[4-(trifluoromethyl)phenyl]-2H,8H-pyrazolo[3,4-b]indol-5-yl}-1-(pyridin-3-yl)methanesulfonamide] | – | 1000 to 10000 nM | IC50 (YAP-TEAD interaction; [4]): > 10000 nM
10 | Cn1cc2c3cc(C(=O)NCCOC4CCNC4)ccc3n(-c3ccc(C(F)(F)F)cc3)c2n1 (centres unmarked) [Example C142, 2-methyl-N-[2-(pyrrolidin-3-yloxy)ethyl]-8-[4-(trifluoromethyl)phenyl]-2H,8H-pyrazolo[3,4-b]indole-5-carboxamide] | 100 to 10000 nM | – | –
11 | Cn1cc2c3cc(NC(=O)CC4(O)CNC4)ccc3n(-c3ccc(C(F)(F)F)cc3)c2n1 [Example C259, 2-(3-hydroxyazetidin-3-yl)-N-{2-methyl-8-[4-(trifluoromethyl)phenyl]-2H,8H-pyrazolo[3,4-b]indol-5-yl}acetamide Formate] | 100 to 10000 nM | – | –
12 | Cc1snc2c1c1cc(C(=O)N[C@H](CO)C3CCC3)ccc1n2-c1ccc(C(F)(F)F)cc1 [Example C100, N-[(1S)-1-cyclobutyl-2-hydroxyethyl]-3-methyl-8-[4-(trifluoromethyl)phenyl]-8H-[1,2]thiazolo[3,4-b]indole-5-carboxamide] | 100 to 10000 nM | – | –
13 | CNCCC(=O)Nc1ccc2c(c1)c1cn(C)nc1n2-c1ccc(C(F)(F)F)cc1 [Example C222, N-{2-methyl-8-[4-(trifluoromethyl)-phenyl]-2H,8H-pyrazolo[3,4-b]indol-5-yl}-3-(methylamino)propanamide] | 100 to 10000 nM | – | –
14 | Cc1snc2c1c1cc(C(=O)NCc3nccn3C)ccc1n2-c1ccc(C(F)(F)F)cc1 [Example C79, 3-methyl-N-[(1-methyl-1H-imidazol-2-yl)methyl]-8-[4-(trifluoromethyl)phenyl]-8H-[1,2]thiazolo[3,4-b]indole-5-carboxamide] | 100 to 10000 nM | – | –
15 | Cn1cc2c3cc(C(=O)N=S4(=O)CC5(CNC5)C4)ccc3n(-c3ccc(C(F)(F)F)cc3)c2n1 [Example C271, 2-methyl-N-{2-oxo-2¿6-thia-6-azaspiro[3.3]heptan-2-ylidene}-8-[4-(trifluoromethyl)phenyl]-2H,8H-pyrazolo[3,4-b]indole-5-carboxamide Formate] | 100 to 10000 nM | – | –

Now from value to molecule, other results behind:

Row | IC50 (YAP-TEAD interaction; [1]) | IC50 (NCI-H226 cells; [2]) | Compound | also measured
16 | 10 to 100 nM | 1 to 100 nM | Cn1cc2c3cc(C(=O)NC(CO)c4cscn4)ccc3n(-c3ccc(C(F)(F)F)cc3)c2n1 (centres unmarked) [Example C277, N-[2-hydroxy-1-(1,3-thiazol-4-yl)ethyl]-2-methyl-8-[4-(trifluoromethyl)phenyl]-2H,8H-pyrazolo[3,4-b]indole-5-carboxamide] | IC50 (SW620 Yap KO cells): > 30 µM
17 | 100 to 10000 nM | 1 to 100 nM | C[C@@H](NC(=O)c1ccc2c(c1)c1cn(C)nc1n2-c1ccc(C(F)(F)F)cc1)c1ccc(N)nc1 [Example C257, N-[(1R)-1-(6-aminopyridin-3-yl)ethyl]-2-methyl-8-[4-(trifluoromethyl)phenyl]-2H,8H-pyrazolo[3,4-b]indole-5-carboxamide] | IC50 (SW620 Yap KO cells): > 30 µM
18 | 10 to 100 nM | 1 to 100 nM | Cn1nc2c3cc(C(=O)NC(CO)c4cscn4)ccc3n(-c3ccc(C(F)(F)F)cc3)c2n1 (centres unmarked) [Example C276, N-[2-hydroxy-1-(1,3-thiazol-4-yl)ethyl]-2-methyl-4-[4-(trifluoromethyl)phenyl]-2H,4H-[1,2,3]triazolo[4,5-b]indole-7-carboxamide] | –
19 | 100 to 10000 nM | 100 to 1000 nM | Cn1cc2c3cc(C(=O)N[C@H](CCO)c4ccccn4)ccc3n(-c3ccc(C(F)(F)F)cc3)c2n1 (single isomer, unassigned) [Example C239] | –
20 | 10 to 100 nM | 1 to 100 nM | Cn1cc2c3cc(C(=O)NC(CO)c4ncc[nH]4)ccc3n(-c3ccc(C(F)(F)F)cc3)c2n1 (centres unmarked) [Example C273, N-[2-hydroxy-1-(1H-imidazol-2-yl)ethyl]-2-methyl-8-[4-(trifluoromethyl)phenyl]-2H,8H-pyrazolo[3,4-b]indole-5-carboxamide trifluoroacetate] | –
21 | 100 to 10000 nM | – | C[C@H](CO)NC(=O)c1ccc2c(c1)c1cn(C)nc1n2-c1ccc(F)cc1 [Example C155, 8-(4-fluorophenyl)-N-[(2R)-1-hydroxypropan-2-yl]-2-methyl-2H,8H-pyrazolo[3,4-b]indole-5-carboxamide] | –
22 | 100 to 10000 nM | – | CC(NC(=O)c1ccc2c(c1)c1cn(C)nc1n2-c1ccc(C(F)(F)F)cc1)c1c[nH]nn1 (centres unmarked) [Example B5] | –
23 | 100 to 10000 nM | – | C[C@H](CO)C(=O)Nc1ccc2c(c1)c1cn(C)nc1n2-c1ccc(C(F)(F)F)cc1 [Example C154, (2R)-3-hydroxy-2-methyl-N-{2-methyl-8-[4-(trifluoromethyl)phenyl]-2H,8H-pyrazolo[3,4-b]indol-5-yl}propanamide] | –
